Assay results from US8632612B2, “Compositions for dyeing keratin fibers” (Segetis, Inc., priority 2010, dated 2014).

Assays:
[1] = Dissolution of hair dye moieties in neat ketal solvents and storage at room temperature (Example 7); format: physicochemical
Description: The respective hair dye compositions and their methods of manufacturing are discussed in detail below.

[2] = Saturated solubility of oxidation dye intermediates in hair dye formulations (UV-Vis against calibration curve); details: 10 minutes stirring, three replications

| dissolution in ketal ([1]; 10% solids in Bu-LGK at 80° C. with agitation) | dissolution in ketal ([1]; 10% solids in Et-LGK at 80° C. with agitation) | dissolution in ketal ([1]; 10% solids in Et-LPK at room temperature with agitation) | dissolution in ketal ([1]; 5% solids in Et-LGK at room temperature) | SMILES | Average Solubility ([2]; in formulation 5A (7% Et-LGK), pH 10.2, 27° C.) | Average Solubility ([2]; in formulation 5B (7% Et-LGK), pH 8.5, 27° C.) | Average Solubility ([2]; in formulation 6A (7% Et-LPK), pH 10.2, 27° C.) | Average Solubility ([2]; in formulation 6B (7% Et-LPK), pH 8.5, 27° C.) | dissolution in ketal ([1]; 1% solids in Et-LPK at 80° C.) | solubility after storage ([1]; 5% and 1% solids in Et-LPK, storage at room temperature) | dissolution in ketal ([1]; 5% solids in Bu-LGK at 80° C.) | solubility after storage ([1]; 5% solids in Et-LGK (dissolved at 80° C.), 24 hours of storage at room temperature) | dissolution in ketal ([1]; 5% solids in Et-LGK at 80° C.) | dissolution in ketal ([1]; 5% solids in Et-LPK at 80° C.) | dissolution in ketal ([1]; 25% solids in Bu-LGK at 80° C.) |
| --- | --- | --- | --- | --- | --- | --- | --- | --- | --- | --- | --- | --- | --- | --- | --- |
| dissolved | dissolved | dissolved |  | Oc1cccc(O)c1 [Resorcinol] |  |  |  |  |  |  |  |  |  |  |  |
|  |  |  |  | Nc1ccc(N)cc1 [p-phenylenediamine] | 0.07 % wt./wt. | 0.07 % wt./wt. | 0 % wt./wt. | <0.01 % wt./wt. | did not completely dissolve | a precipitant remained | dissolved | still soluble | dissolved | did not completely dissolve | partially dissolved |
|  |  |  | dissolved | Nc1cccc(O)c1 [m-Aminophenol] |  |  |  |  |  |  |  |  |  | dissolved |  |
